Measurements as given in BindingDB's records for doi:10.1016/s0960-894x(00)00026-3 (Universit&#224, 2000).
pKi: −log10 of the molar value.

assay: Inhibition of Clostridium histolyticum collagenase using a linear regression program

Compound	pKi
Cc1ccc(S(=O)(=O)N(Cc2ccc([N+](=O)[O-])cc2)C(C)C(=O)O)cc1 (centres undefined) [2-[(4-Nitro-benzyl)-(toluene-4-sulfonyl)-amino]-propionic acid]	4.89
CC(C(=O)O)N(Cc1ccc([N+](=O)[O-])cc1)S(=O)(=O)c1c(F)c(F)c(F)c(F)c1F (centres undefined) [2-[(4-Nitro-benzyl)-pentafluorobenzenesulfonyl-amino]-propionic acid]	6.40
CC(C(=O)O)N(Cc1ccc([N+](=O)[O-])cc1)S(=O)(=O)Cc1ccccc1 (centres undefined) [2-[(4-Nitro-benzyl)-phenylmethanesulfonyl-amino]-propionic acid]	4.82
CC(C(=O)O)N(Cc1ccc([N+](=O)[O-])cc1)S(=O)(=O)C(Cl)(Cl)Cl (centres undefined) [2-[(4-Nitro-benzyl)-trichloromethanesulfonyl-amino]-propionic acid]	5.29
CC(C(=O)O)N(Cc1ccc([N+](=O)[O-])cc1)S(=O)(=O)C(F)(F)F (centres undefined) [2-[(4-Nitro-benzyl)-trifluoromethanesulfonyl-amino]-propionic acid]	5.33
CC(C(=O)O)N(Cc1ccc([N+](=O)[O-])cc1)S(=O)(=O)c1ccc(NC(=O)OC(C)(C)C)cc1 (centres undefined) [2-[(4-tert-Butoxycarbonylamino-benzenesulfonyl)-(4-nitro-benzyl)-amino]-propionic acid]	5.62
CC(C(=O)NO)N(Cc1ccc([N+](=O)[O-])cc1)S(=O)(=O)c1cccc2c(N(C)C)cccc12 (centres undefined) [2-[(5-Dimethylamino-naphthalene-1-sulfonyl)-(4-nitro-benzyl)-amino]-N-hydroxy-propionamide]	5.15
CC(C(=O)O)N(Cc1ccc([N+](=O)[O-])cc1)S(=O)(=O)c1cccc2c(N(C)C)cccc12 (centres undefined) [2-[(5-Dimethylamino-naphthalene-1-sulfonyl)-(4-nitro-benzyl)-amino]-propionic acid]	5.96
CC(C(=O)NO)N(Cc1ccc([N+](=O)[O-])cc1)S(=O)(=O)C(F)(F)C(F)(F)C(F)(F)C(F)(F)C(F)(F)C(F)(F)C(F)(F)C(F)(F)F (centres undefined) [2-[(Heptadecafluorooctane-1-sulfonyl)-(4-nitro-benzyl)-amino]-N-hydroxy-propionamide]	5.15
CC(C(=O)O)N(Cc1ccc([N+](=O)[O-])cc1)S(=O)(=O)C(F)(F)C(F)(F)C(F)(F)C(F)(F)C(F)(F)C(F)(F)C(F)(F)C(F)(F)F (centres undefined) [2-[(Heptadecafluorooctane-1-sulfonyl)-(4-nitro-benzyl)-amino]-propionic acid]	5.74
CC(C(=O)O)N(Cc1ccc([N+](=O)[O-])cc1)S(=O)(=O)c1cccc2ccccc12 (centres undefined) [2-[(Naphthalene-1-sulfonyl)-(4-nitro-benzyl)-amino]-propionic acid]	5.92
CC(C(=O)O)N(Cc1ccc([N+](=O)[O-])cc1)S(=O)(=O)c1ccc2ccccc2c1 (centres undefined) [2-[(Naphthalene-2-sulfonyl)-(4-nitro-benzyl)-amino]-propionic acid]	5.89
Cc1ccccc1S(=O)(=O)NC(=O)N(Cc1ccc([N+](=O)[O-])cc1)C(C)C(=O)O (centres undefined) [2-[({[(2-methylphenyl)sulfonyl]amino}carbonyl)(4-nitrobenzyl)amino]propanoic acid]	5.51
CC(C(=O)NO)N(Cc1ccc([N+](=O)[O-])cc1)C(=O)NS(=O)(=O)c1ccc(Cl)cc1 (centres undefined) [2-[({[(4-chlorophenyl)sulfonyl]amino}carbonyl)(4-nitrobenzyl)amino]-N-hydroxypropanamide]	5.15
CC(C(=O)O)N(Cc1ccc([N+](=O)[O-])cc1)C(=O)NS(=O)(=O)c1ccc(Cl)cc1 (centres undefined) [2-[({[(4-chlorophenyl)sulfonyl]amino}carbonyl)(4-nitrobenzyl)amino]propanoic acid]	5.62
CC(C(=O)NO)N(Cc1ccc([N+](=O)[O-])cc1)C(=O)NS(=O)(=O)c1ccc(F)cc1 (centres undefined) [2-[({[(4-fluorophenyl)sulfonyl]amino}carbonyl)(4-nitrobenzyl)amino]-N-hydroxypropanamide]	5.05
CC(C(=O)O)N(Cc1ccc([N+](=O)[O-])cc1)C(=O)NS(=O)(=O)c1ccc(F)cc1 (centres undefined) [2-[({[(4-fluorophenyl)sulfonyl]amino}carbonyl)(4-nitrobenzyl)amino]propanoic acid]	5.48
Cc1ccc(S(=O)(=O)NC(=O)N(Cc2ccc([N+](=O)[O-])cc2)C(C)C(=O)O)cc1 (centres undefined) [2-[({[(4-methylphenyl)sulfonyl]amino}carbonyl)(4-nitrobenzyl)amino]propanoic acid]	5.60
CC(C(=O)NO)N(Cc1ccc([N+](=O)[O-])cc1)S(=O)(=O)c1ccccc1 (centres undefined) [2-[Benzenesulfonyl-(4-nitro-benzyl)-amino]-N-hydroxy-propionamide]	4.27
CC(C(=O)O)N(Cc1ccc([N+](=O)[O-])cc1)S(=O)(=O)c1ccccc1 (centres undefined) [2-[Benzenesulfonyl-(4-nitro-benzyl)-amino]-propionic acid]	4.68
CC(C(=O)O)N(Cc1ccc([N+](=O)[O-])cc1)S(C)(=O)=O (centres undefined) [2-[Methanesulfonyl-(4-nitro-benzyl)-amino]-propionic acid]	4.74
CC(C(=O)NO)N(Cc1ccc([N+](=O)[O-])cc1)S(=O)(=O)N(C)C (centres undefined) [2-[[(dimethylamino)sulfonyl](4-nitrobenzyl)amino]-N-hydroxypropanamide]	4.16

Compound	pKi
CC(C(=O)O)N(Cc1ccc([N+](=O)[O-])cc1)S(=O)(=O)N(C)C (centres undefined) [2-[[(dimethylamino)sulfonyl](4-nitrobenzyl)amino]propanoic acid]	4.44
CC(C(=O)O)N(Cc1ccc([N+](=O)[O-])cc1)S(=O)(=O)c1cccc(C(=O)O)c1 (centres undefined) [3-[(1-Carboxy-ethyl)-(4-nitro-benzyl)-sulfamoyl]-benzoic acid]	5.70
CC(C(=O)NO)N(Cc1ccc([N+](=O)[O-])cc1)S(=O)(=O)c1cccc(C(=O)O)c1 (centres undefined) [3-[(1-Hydroxycarbamoyl-ethyl)-(4-nitro-benzyl)-sulfamoyl]-benzoic acid]	5.05
CC(C(=O)O)N(Cc1ccc([N+](=O)[O-])cc1)S(=O)(=O)c1ccc(C(=O)O)cc1 (centres undefined) [4-[(1-Carboxy-ethyl)-(4-nitro-benzyl)-sulfamoyl]-benzoic acid]	5.85
CC(C(=O)NO)N(Cc1ccc([N+](=O)[O-])cc1)S(=O)(=O)c1ccc(C(=O)O)cc1 (centres undefined) [4-[(1-Hydroxycarbamoyl-ethyl)-(4-nitro-benzyl)-sulfamoyl]-benzoic acid]	5.22
CC(C(=O)NO)N(Cc1ccc([N+](=O)[O-])cc1)C(=O)Nc1cccc2ccccc12 (centres undefined) [N-Hydroxy-2-[3-naphthalen-1-yl-1-(4-nitro-benzyl)-ureido]-propionamide]	5.00
CC(C(=O)NO)N(Cc1ccc([N+](=O)[O-])cc1)S(=O)(=O)c1ccccc1[N+](=O)[O-] (centres undefined) [N-Hydroxy-2-[(2-nitro-benzenesulfonyl)-(4-nitro-benzyl)-amino]-propionamide]	4.89
CC(C(=O)NO)N(Cc1ccc([N+](=O)[O-])cc1)S(=O)(=O)c1cccc([N+](=O)[O-])c1 (centres undefined) [N-Hydroxy-2-[(3-nitro-benzenesulfonyl)-(4-nitro-benzyl)-amino]-propionamide]	4.92
CC(C(=O)NO)N(Cc1ccc([N+](=O)[O-])cc1)S(=O)(=O)c1ccc(I)cc1 (centres undefined) [N-Hydroxy-2-[(4-iodo-benzenesulfonyl)-(4-nitro-benzyl)-amino]-propionamide]	4.43
COc1ccc(S(=O)(=O)N(Cc2ccc([N+](=O)[O-])cc2)C(C)C(=O)NO)cc1 (centres undefined) [N-Hydroxy-2-[(4-methoxy-benzenesulfonyl)-(4-nitro-benzyl)-amino]-propionamide]	4.68
CC(C(=O)NO)N(Cc1ccc([N+](=O)[O-])cc1)S(=O)(=O)c1ccc([N+](=O)[O-])cc1 (centres undefined) [N-Hydroxy-2-[(4-nitro-benzenesulfonyl)-(4-nitro-benzyl)-amino]-propionamide]	5.00
Cc1cc(C)c(S(=O)(=O)N(Cc2ccc([N+](=O)[O-])cc2)C(C)C(=O)NO)c(C)c1 (centres undefined) [N-Hydroxy-2-[(4-nitro-benzyl)-(2,4,6-trimethyl-benzenesulfonyl)-amino]-propionamide]	4.77
CC(C(=O)NO)N(Cc1ccc([N+](=O)[O-])cc1)S(=O)(=O)c1cccc(C(F)(F)F)c1 (centres undefined) [N-Hydroxy-2-[(4-nitro-benzyl)-(3-trifluoromethyl-benzenesulfonyl)-amino]-propionamide]	5.22
CC(C(=O)NO)N(Cc1ccc([N+](=O)[O-])cc1)Sc1ccc([N+](=O)[O-])cc1 (centres undefined) [N-Hydroxy-2-[(4-nitro-benzyl)-(4-nitro-phenylsulfanyl)-amino]-propionamide]	4.96
CC(C(=O)NO)N(Cc1ccc([N+](=O)[O-])cc1)S(=O)(=O)c1cccc2cccnc12 (centres undefined) [N-Hydroxy-2-[(4-nitro-benzyl)-(quinoline-8-sulfonyl)-amino]-propionamide]	5.10
CC(C(=O)NO)N(Cc1ccc([N+](=O)[O-])cc1)S(=O)(=O)c1cccs1 (centres undefined) [N-Hydroxy-2-[(4-nitro-benzyl)-(thiophene-2-sulfonyl)-amino]-propionamide]	4.96
Cc1ccc(S(=O)(=O)N(Cc2ccc([N+](=O)[O-])cc2)C(C)C(=O)NO)cc1 (centres undefined) [N-Hydroxy-2-[(4-nitro-benzyl)-(toluene-4-sulfonyl)-amino]-propionamide]	4.44
CC(C(=O)NO)N(Cc1ccc([N+](=O)[O-])cc1)S(=O)(=O)c1c(F)c(F)c(F)c(F)c1F (centres undefined) [N-Hydroxy-2-[(4-nitro-benzyl)-pentafluorobenzenesulfonyl-amino]-propionamide]	5.30
CC(C(=O)NO)N(Cc1ccc([N+](=O)[O-])cc1)S(=O)(=O)Cc1ccccc1 (centres undefined) [N-Hydroxy-2-[(4-nitro-benzyl)-phenylmethanesulfonyl-amino]-propionamide]	4.30
CC(C(=O)NO)N(Cc1ccc([N+](=O)[O-])cc1)S(=O)(=O)C(Cl)(Cl)Cl (centres undefined) [N-Hydroxy-2-[(4-nitro-benzyl)-trichloromethanesulfonyl-amino]-propionamide]	4.28
CC(C(=O)NO)N(Cc1ccc([N+](=O)[O-])cc1)S(=O)(=O)C(F)(F)F (centres undefined) [N-Hydroxy-2-[(4-nitro-benzyl)-trifluoromethanesulfonyl-amino]-propionamide]	4.12
CC(C(=O)NO)N(Cc1ccc([N+](=O)[O-])cc1)S(=O)(=O)c1cccc2ccccc12 (centres undefined) [N-Hydroxy-2-[(naphthalene-1-sulfonyl)-(4-nitro-benzyl)-amino]-propionamide]	5.15
